From US11267802B2 (BEBETTER MED INC., priority 2015, dated 2022)
Read-outs that look alike come from different tables or passages of the source.

What was measured:
EGFR T790M/L858R = target: T1, EGFR T790M/L858R (Homo sapiens, UniProt P00533, L858R/T790M); assay: Mutant EGFR T790M/L858R activity inhibition assay (Caliper mobility shift); format: biochemical; settings: read-out: enzyme activity inhibition (IC50) EGFR T790M/L858R
T1 construct: purchased Invitrogen PR8911A
In short: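 Compound added in 10% DMSO at 5-fold final concentration; substrate conversion read by Caliper mobility shift. Inhibition = (max−conversion)/(max−min)×100, with max from DMSO no-compound wells and min from no-enzyme wells; IC50 from fitted concentration–response curve.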

[1] = Pharmacokinetic experiments of tumor model (plasma and tumor tissue, H1975 xenograft mice); format: in vivo, Balb/C nude mice; settings: oral 30 mg/kg; for AUC(0-inf) / Cmax / Tmax / half-life / AUC(0-t): Balb/C nude, mouse; for AUC(0-t): read-out: AUC0-24
Description: (§1) Balb/C nude mice were purchased from Beijing Vital River Laboratory Animal Technology Co., Ltd., and housed in SPF animal room. The human non-small-cell lung cancer cell line H1975 in a culture dish was collected by trypsin-EDTA (0.25% trypsin, 1 mM EDTA), and then washed with a serum-free PBS solution. Lastly, the cells were implanted after diluted in a serum-free medium. Only the single cell suspension with a survival rate over 90% (Trypan blue rejection) can be used for injection. 5 million cells suspended in a 0.1 ml serum-free culture were injected into the front right flanking subcutaneous region of each mouse by using a 1 ml syringe and a 25G syringe needle, and the blood vessel was carefully avoided. The tumor size was measured in about one week after implantation. A caliper rule was used to measure the tumor size. The tumor volume was calculated by the following formula: tumor volume=(length×width^2)/2.
When the volume of H1975 xenograft tumor reached a volume of about 400 mm^3, the animals were divided into 6 oral administration groups, that is, excipient control group (0 hour) and groups of 30 minutes, 2 hours, 4 hours, 8 hours, and 24 hours after administration (3 animals at each time point). The compound 91 was dissolved in 30% sulfobutylated beta-cyclodextrin (SBE-β-CD) and 1 N HCl (pH 3-4) at a concentration of 3 mg/ml, and gavage administration at a dose of 30 mg/kg was performed. The mice were euthanized by CO2 at the above time points. Then their blood was collected from the heart and placed in a centrifuge tube containing K2-EDTA, and subjected to plasma collection by centrifugation. The tumor tissue was collected, cooled in liquid nitrogen immediately, and then stored under −80° C. until pharmacokinetic analysis.
Pharmacokinetic analysis was performed as below: the plasma sample and tumor tissue homogenate sample were mixed with 5 microliter of internal standard (IS), and then extracted with ethyl acetate. After vacuum drying, the residue was re-dissolved in acetonitrile. The sample was filtered and injected into LC-MS/MS for analysis.

[2] = tested on: EGFR phosphorylation in H1975 xenograft tumor; assay: Pharmacodynamic experiments of tumor model (EGFR phosphorylation, Western blot); format: in vivo, Balb/C nude mice; settings: oral 30 mg/kg
Description: as §1
When the H1975 xenograft tumor reached a volume of about […], the animals were divided into 4 oral administration groups, that is, excipient control group (0 hour) and groups of 2 hours, 4 hours, and 8 hours after administration (3 to 4 animals at each time point). […]
20 mg of tumor tissue was homogenized in 300 μl of protein extract (RIPA, CST, #9806). […] The protein concentration was determined by Bradford method (Beyotime, # P0006). […]

H1975 xenograft tumor = assay: Potency assay of tumor model, 16 consecutive days; format: in vivo, Balb/C nude mice; settings: oral
Description: as §1
This experiment studied the inhibition of tumor growth in H1975 xenograft tumor model by the compounds 20, 50, 91, and 118. When the mean volume of H1975 tumor reached about 260 mm^3, the animals were divided into 5 oral administration groups, that is, excipient control group and groups of oral administration of compound 20, compound 50, compound 91, and compound 118, respectively (n=8/group). These compounds were dissolved in 30% sulfobutylated beta-cyclodextrin (SBE-β-CD) and 1N HCl (pH 3-4). […]

T1 sequence (P00533 25-1210 T790M/L858R): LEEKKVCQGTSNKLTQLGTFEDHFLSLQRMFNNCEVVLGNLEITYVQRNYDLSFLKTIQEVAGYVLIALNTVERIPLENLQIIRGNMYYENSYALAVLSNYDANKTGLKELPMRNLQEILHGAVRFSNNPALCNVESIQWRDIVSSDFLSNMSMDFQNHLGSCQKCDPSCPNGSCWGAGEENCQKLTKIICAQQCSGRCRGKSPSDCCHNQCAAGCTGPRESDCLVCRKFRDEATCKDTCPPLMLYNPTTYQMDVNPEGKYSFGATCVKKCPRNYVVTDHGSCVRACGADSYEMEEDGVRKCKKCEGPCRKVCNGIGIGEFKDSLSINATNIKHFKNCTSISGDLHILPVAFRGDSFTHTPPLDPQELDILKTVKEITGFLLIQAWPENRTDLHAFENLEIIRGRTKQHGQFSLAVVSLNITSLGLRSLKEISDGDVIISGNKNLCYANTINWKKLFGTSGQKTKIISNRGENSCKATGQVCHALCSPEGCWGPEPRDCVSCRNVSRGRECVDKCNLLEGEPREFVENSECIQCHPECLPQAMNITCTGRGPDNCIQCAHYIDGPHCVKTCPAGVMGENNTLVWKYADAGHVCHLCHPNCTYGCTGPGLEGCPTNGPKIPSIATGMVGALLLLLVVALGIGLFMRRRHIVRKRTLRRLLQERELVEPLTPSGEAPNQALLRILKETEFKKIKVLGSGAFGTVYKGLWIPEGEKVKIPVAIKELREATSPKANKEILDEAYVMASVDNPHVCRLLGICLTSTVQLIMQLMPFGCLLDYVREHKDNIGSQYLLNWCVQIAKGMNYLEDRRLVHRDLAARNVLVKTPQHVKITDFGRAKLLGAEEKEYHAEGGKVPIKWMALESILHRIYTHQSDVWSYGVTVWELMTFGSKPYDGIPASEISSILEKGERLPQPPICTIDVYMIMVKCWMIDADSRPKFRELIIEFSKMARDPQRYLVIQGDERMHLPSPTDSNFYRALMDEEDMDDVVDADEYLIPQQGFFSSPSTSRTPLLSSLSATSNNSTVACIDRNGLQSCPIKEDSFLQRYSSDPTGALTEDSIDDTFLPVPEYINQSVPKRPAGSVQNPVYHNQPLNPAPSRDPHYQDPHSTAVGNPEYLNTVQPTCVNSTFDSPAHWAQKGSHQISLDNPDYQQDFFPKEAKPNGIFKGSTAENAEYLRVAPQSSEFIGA

IC50 (EGFR T790M/L858R): < 1 nM
AUC(0-inf) ([1]; plasma): 5130 ng·h/mL
Cmax ([1]; plasma): 1720 ng/mL
Tmax ([1]; plasma): 0.5 h
half-life ([1]; plasma): 3.1 h
AUC(0-t) ([1]; plasma): 5100 ng·h/mL
AUC(0-inf) ([1]; tumor tissue): 6840 ng·h/mL
Cmax ([1]; tumor tissue): 868 ng/mL
Tmax ([1]; tumor tissue): 4 h
half-life ([1]; tumor tissue): 5.5 h
AUC(0-t) ([1]; tumor tissue): 6430 ng·h/mL
absorption after oral administration (in words) [1]: absorbed quickly
melting point: 225 to 227 °C
Compound: C=CC(=O)Nc1cc(Nc2nccc(-n3c(=O)n(C(C)C)c4cc(F)ccc43)n2)c(OC)cc1N(C)CCN(C)C [Compound 91, N-(2-((2-(dimethylamino)ethyl)(methyl)amino)-5-(4-(5-fluoro-3-isopropyl-2-oxo-2,3-dihydro-1H-benzo[d]imidazol-1-yl)pyrimidin-2-ylamino)-4-methoxyphenyl)acrylamide]
inhibition of EGFR phosphorylation in H1975 tumor (in words) ([2]; at 2 hours and 4 hours): strong
inhibition of EGFR phosphorylation in H1975 tumor (in words) ([2]; at 8 hours): obvious inhibition effect
T/C value (H1975 xenograft tumor; 30 mg/kg qd as printed, 16 days after administration): −95%
inhibition of growth of H1975 xenograft tumor (in words) (H1975 xenograft tumor; 30 mg/kg qd, 16 days): tumor regression
